From patent US6800637B2, “Antidepressant indolealkyl derivatives of heterocycle-fused benzodioxan methylamines” (Wyeth, priority 2002, dated 2004)
Counter-ions that a name gives are not always drawn.

| melting point | Structure (SMILES) |
| --- | --- |
| 207 to 209 °C | Cc1ccc2c3c(ccc2n1)OC[C@H](CNCCCc1c[nH]c2ccc(F)cc12)O3 (as salt: fumarate) [Example 3, N-[3-(5-Fluoro-1H-Indolyl-3-yl)propyl]-N-(8-methyl-2,3-dihydro-[1,4]dioxino[2,3-f]quinolin-2-ylmethyl)amine] |
| 124 to 127 °C | Cc1ccc2c3c(ccc2n1)OCC(CNCCc1csc2ccccc12)O3 (stereo not shown) (as salt: fumarate) [Example 21, N-[2-(1-Benzothien-3-yl)ethyl]-N-(8-methyl-2,3-dihydro-[1,4]dioxino[2,3-f]quinolin-2-ylmethyl)amine] |
| 142 to 150 °C | Cc1ccc2c3c(ccc2n1)OCC(CNCCCc1c[nH]c2c(F)cccc12)O3 (stereo not shown) (as salt: fumarate) [Example 8, N-[3-(7-Fluoro-1H-indol-3-yl)propyl]-N-(8-methyl-2,3-dihydro-[1,4]dioxino[2,3-f]quinolin-2-ylmethyl)amine] |
| 208 to 210 °C | Cc1ccc2c3c(ccc2n1)OCC(CNCCCCc1c[nH]c2ccccc12)O3 (stereo not shown) (as salt: fumarate) [Example 9, N-[4-(1H-indol-3-yl)butyl]-N-(8-methyl-2,3-dihydro-[1,4]dioxino[2,3-f]quinolin-2-ylmethyl)amine] |
| 117 to 120 °C | Cc1ccc2c3c(ccc2n1)OC[C@H](CNCCCc1csc2ccc(F)cc12)O3 (as salt: fumarate) [Example 51, N-[3-(5-Fluoro-1-benzothien-3-yl)propyl]-N-{[(2S)-8-methyl-2,3-dihydro[1,4]dioxino[2,3-f]quinolin-2-yl]methyl}amine] |
| 138 to 154 °C | Cc1ccc2c3c(ccc2n1)OCC(CNCCCCc1c[nH]c2ccc(F)cc12)O3 (stereo not shown) (as salt: fumarate) [Example 10, N-[4-(5-Fluoro-1H-indol-3-yl)butyl]-N-(8-methyl-2,3-dihydro-[1,4]dioxino[2,3-f]quinolin-2-ylmethyl)amine] |
| 170 to 174 °C | Cc1ccc2c3c(ccc2n1)OCC(CNCCCc1c[nH]c2ccc(C#N)cc12)O3 (stereo not shown) (as salt: hydrochloride) [Example 29, 3-{3-[(8-Methyl-2,3-dihydro-[1,4]dioxino[2,3-f]quinolin-2-ylmethyl)-amino]-propyl}-1H-indole-5-carbonitrile] |

Continued, compound first:

| Structure (SMILES) | melting point |
| --- | --- |
| Cc1ccc2c3c(ccc2n1)OCC(CN(C)CCCc1cn(C)c2ccc(F)cc12)O3 (stereo not shown) (as salt: hydrochloride) [Example 42, [3-(5-Fluoro-1-methyl-1H-indol-3-yl)-propyl]-methyl-(8-methyl-2,3-dihydro-[1,4]dioxino[2,3-f]quinolin-2-ylmethyl)-amine] | 274 to 275 °C |
| Cc1ccc2c3c(ccc2n1)OCC(CN(C)CCCc1cn(C)c2c(F)cc(F)cc12)O3 (stereo not shown) (as salt: hydrochloride) [Example 27, N-[3-(5,7-Difluoro-1-methyl-1H-indol-3-yl)propyl]-N-methyl-N-(8-methyl-2,3-dihydro-[1,4]dioxino[2,3-f]quinolin-2-ylmethyl)amine] | 190 to 204 °C |
| Cc1ccc2c3c(ccc2n1)OCC(CN(C)CCCCc1c[nH]c2ccc(F)cc12)O3 (stereo not shown) (as salt: hydrochloride) [Example 43, [4-(5-Fluoro-1H-indol-3-yl)-butyl]-methyl-(8-methyl-2,3-dihydro-[1,4]dioxino[2,3-f]quinolin-2-ylmethyl}-amine] | 274 to 275 °C |
| Cc1ccc2c3c(ccc2n1)OCC(CN(C)CCCn1ccc2ccc(F)cc21)O3 (stereo not shown) (as salt: hydrochloride) [Example 34, [3-(6-Fluoro-indol-1-yl)-propyl]-methyl-(8-methyl-2,3-dihydro-[1,4]dioxino[2,3-f]quinolin-2-ylmethyl)-amine] | 75.9 to 83.7 °C |
| CCCN(CCCc1c[nH]c2ccc(F)cc12)CC1COc2ccc3nc(C)ccc3c2O1 (stereo not shown) (as salt: hydrochloride) [Example 45, [3-(5-Fluoro-1H-indol-3-yl)-propyl]-(8-methyl-2,3-dihydro-[1,4]dioxino[2,3-f]quinolin-2-ylmethyl)-propyl-amine] | 164 to 170 °C |
| CCN(CCCc1c[nH]c2ccc(F)cc12)C[C@H]1COc2ccc3nc(C)oc3c2O1 (as salt: hydrochloride) [Example 36, Ethyl-[3-(5-fluoro-1H-indol-3-yl)-propyl]-(2-methyl-7,8-dihydro-[1,4]dioxino[2,3-g][1,3]benzoxazol-8-ylmethyl)-amine] | 115 °C (dec.) |
